Laboratory results as given in patent publication US12290509B2, “Treatment of hepatitis delta virus infection” (priority 2014, dated 2025).
Where “and” joins values, the source holds several entries; their conditions need not be identical. Identical values can stand only once. Like-named read-outs stand apart in the source and are kept apart here.

How the values were obtained:
hepatitis B virus (HBV) = experiment: HBV DNA viral load and HBsAg in patients infected with HBV and HDV; settings: 200 mg BID lonafarnib 12 weeks; baseline about 4 log IU/ml; below LOQ of 2 log IU/mL
Text: The term “HBV viral load” of a human serum or plasma sample refers to the number of copies of human HBV DNA in a given amount of human serum or plasma sample. HBV DNA may be detected and quantitated using real-time PCR. Commercial assays for quantitating HBV DNA are available. In the United States, Abbott offers the RealTime HBV assay, which is an in vitro PCR assay for the quantitation of HBV DNA in human serum or plasma. A CE certified kit for real-time PCR-based detection of HBV is commercially available from Analytik Jena, Germany (RoboGene® HBV DNA Quantification Kit 2.0).

[1] = system: hepatitis delta virus (HDV); format: in vivo, human
[2] = formulated in crystalline forms; cited from earlier work
[3] = 200 mg BID lonafarnib; Hanrahan et al. 2009, List et al. 2002; cited from earlier work
[4] = Serum ALT values in HDV patients; format: in vivo, human
[5] = cited from earlier work
[6] = Lonafarnib serum/plasma concentration in HDV patients (LC-MS/MS); format: in vivo, human; settings: N=3
Text: As used herein, a serum lonafarnib level or concentration can be measured from a serum sample obtained from a subject periodically (such as weekly, biweekly, monthly or according to other schedules) and the levels during intervening periods can be extrapolated. […] In some embodiments the first measurement is made no earlier than one week after the initiation of oral therapy. Serum levels of lonafarnib can be measured using art-known methods, including radioimmunoassays, chromatographic assays, mass spectrometry and the like. In some embodiments of the invention, patient serum samples were extracted using a protein precipitation method (Acetonitrile).

[7] = Adverse events / tolerability in HDV patients; settings: N=3
[8] = Norvir package insert, cited from earlier work

SMILES: NC(=O)N1CCC(CC(=O)N2CCC([C@H]3c4ncc(Br)cc4CCc4cc(Cl)cc(Br)c43)CC2)CC1 [lonafarnib]
- HBV VL (HBV DNA level) after suppression, patient A-001-5 (hepatitis B virus (HBV)): approximately 1.5 log IU/ml
- Δ log Baseline to Day 28 ([1]; 200 mg BID lonafarnib, individual patients 4-6): −1.85 log and −1.06 log and −1.98 log
- Δ log Baseline to Day 28 ([1]; 300 mg BID lonafarnib, individual patients 1-3): −1.95 log and −1.97 log and −2.07 log
- bioavailability in animals [2]: low and variable bioavailability
- tolerability in cancer patients [3]: well tolerated
- ALT following ALT flare, patient A-001-5 ([4]; 200 mg BID lonafarnib): ALT normalization
- ALT following ALT flare, patient A-001-1 ([4]; 300 mg BID lonafarnib): ALT normalization
- stability in solution ([5]; by pH): stable at neutral pH but will hydrolyze in acidic or basic conditions
- water solubility [5]: poorly water soluble
- hygroscopicity ([5]; crystalline solid): non-hygroscopic
- thermal stability ([5]; solid state): thermally stable
- Mean Serum Concentrations (lonafarnib) ([6]; Day 7, LNF 200 mg BID): 2555 ng/mL
- Mean Serum Concentrations (lonafarnib) ([6]; Day 7, LNF 300 mg BID): 2994 ng/mL
- Mean Serum Concentrations (lonafarnib) ([6]; Day 14, LNF 200 mg BID): 2959 ng/mL
- Mean Serum Concentrations (lonafarnib) ([6]; Day 14, LNF 300 mg BID): 1548 ng/mL
- Mean Serum Concentrations (lonafarnib) ([6]; Day 28, LNF 200 mg BID): 2771 ng/mL
- Mean Serum Concentrations (lonafarnib) ([6]; Day 28, LNF 300 mg BID): 1984 ng/mL
- Mean Serum Concentrations (lonafarnib) ([6]; Day 56, LNF 200 mg BID): 1656 ng/mL
- Mean Serum Concentrations (lonafarnib) ([6]; Day 56, LNF 300 mg BID): 2032 ng/mL
- Mean Serum Concentrations (lonafarnib) ([6]; Day 84, LNF 200 mg BID): 443 ng/mL
- Mean Serum Concentrations (lonafarnib) ([6]; Day 84, LNF 300 mg BID): 977 ng/mL
- Anorexia, Grade 2 ([7]; LNF 200 mg BID): ✓
- Diarrhea, Grade 2 ([7]; LNF 200 mg BID): ✓
- Fatique, Grade 2 ([7]; LNF 200 mg BID): ✓
- Nausea, Grade 2 ([7]; LNF 200 mg BID): ✓
- Wt Loss, Grade 2 ([7]; LNF 200 mg BID): ✓
- Anorexia, Grade 2 ([7]; LNF 300 mg BID): ✓
- Diarrhea, Grade 2 ([7]; LNF 300 mg BID): ✓
- Fatique, Grade 2 ([7]; LNF 300 mg BID): ✓
- Nausea, Grade 2 ([7]; LNF 300 mg BID): ✓
- Wt Loss, Grade 2 ([7]; LNF 300 mg BID): ✓

SMILES: CC(C)c1nc(CN(C)C(=O)N[C@H](C(=O)N[C@@H](Cc2ccccc2)C[C@H](O)[C@H](Cc2ccccc2)NC(=O)OCc2cncs2)C(C)C)cs1 [ritonavir]
- increase in AUC of the co-administered primary drug ([8]; Fluticasone propionate, aqueous nasal spray): 350 fold
- increase in AUC of the co-administered primary drug ([8]; sidenafil): 11 fold
- increase in AUC of the co-administered primary drug ([8]; trimethoprim): 1.2 fold
